Assay results as given in paper PMC5881522, “Molecular Defects in Cardiac Myofilament Ca^2+-Regulation Due to Cardiomyopathy-Linked Mutations Can Be Reversed by Small Molecules Binding to Troponin” (Frontiers in Physiology, 2018).
“Also recorded” adds a separate entry of the source.

Legend:
[1] = molecular target: T1, thin filaments containing E180G tropomyosin (TPM1 E180G, HCM) (Homo sapiens, UniProt P19429+P45379+P63316); assay: IVMA Ca2+-activation curves, TPM1 E180G; assay type: biochemical; details: phosphorylated and unphosphorylated E180G tropomyosin thin filaments, 25 μM for Quercetin and ECG
T1 construct: isolate troponin from 100 mg of donor heart tissue; from tissue; host or cells: troponin: human donor heart; tropomyosin: baculovirus/Sf9 (gift); actin: rabbit fast-twitch skeletal muscle
Excerpt: (§1) Recombinant human sequence tropomyosin was a gift from Kristen Nowak and Elyshia MacNamara, University, Western Australia. Wild-type α-tropomyosin (Tpm1.1) and mutant E180G tropomyosin were expressed in a baculovirus/Sf9 system (Akkari et al., [2002]; Marston et al., [2013]). Skeletal muscle F-actin and myosin were isolated from rabbit fast-twitch skeletal muscle as previously described (Messer et al., [2007]). TnC G159D mutant troponin was extracted from a mutant human heart sample (Dyer et al., [2009]), E99K mutant cardiac actin was extracted from the E99K transgenic mouse heart (Song et al., [2013]).
(§2) Thin filaments were reconstituted with 10 nM rabbit skeletal or mouse cardiac muscle α-actin (labeled with TRITC phalloidin), tropomyosin (40–60 nM), and troponin (60 nM) to study Ca^2+-regulation of filament motility by the quantitative in vitro motility assay (IVMA) (Fraser and Marston, [1995]; Messer et al., [2007]). Thin filament movement over a bed of immobilized rabbit fast skeletal muscle heavy meromyosin (100 μg/ml) was compared in paired motility cells, in which troponin varied by a single factor (mutation, phosphorylation state, or treatment with drug). The temperature was set to 29°C. Filament movement was recorded and analyzed as previously described (Marston et al., [1996]), yielding two parameters, the fraction of filaments moving and the speed of moving filaments. Only the fraction of filaments motile is used in this study.
The fraction motile was measured over a range of Ca^2+ concentrations to generate Ca^2+-activation curves. The data were fitted to the 4-variable Hill equation to yield a value for EC50 and nH. Most assays of the effect of compounds are single measurements. […]

[2] = molecular target: T2, tropomyosin E180G mutant-containing thin filaments (Homo sapiens, UniProt P19429+P45379+P63316); assay: Single [Ca2+] in vitro motility assay screen for re-coupling; assay type: biochemical; details: for Coupling Difference (Initial Screen E180G): 100 μM compound, difference between motility (%) in phosphorylated and unphosphorylated thin filaments, TPM1 E180G, >10% = re-coupling; for Coupling Difference (Initial Screen E180G) / re-coupling activity (in words): 0.037 μM Ca2+; for re-coupling activity (in words): E180G thin filaments
T2 construct: isolate troponin from 100 mg of donor heart tissue; from tissue; host or cells: troponin: human donor heart; tropomyosin: baculovirus/Sf9 (gift); actin: rabbit fast-twitch skeletal muscle
Method: as §2
For drug screening, motility was measured with paired phosphorylated and unphosphorylated tropomyosin E180G mutant-containing thin filaments at a fixed 0.037 μM Ca^2+. Most assays were single measurements.
For the rapid screening of compounds, we devised a single Ca^2+ concentration assay. This is illustrated in Figures 2A,B for quercetin. The test system contains skeletal muscle actin, human sequence recombinant tropomyosin 1.1 containing the E180G HCM-associated mutation and human cardiac troponin from donor hearts in the phosphorylated and unphosphorylated form. At 0.037 μM Ca^2+ the filaments are about 40% motile irrespective of phosphorylation level whilst when quercetin is added the phosphorylated Ca^2+ activity curve shifts to the right and % motility at 0.037 μM Ca^2+ drops, whilst the unphosphorylated level is unchanged. We have set a difference between phosphorylated and unphosphorylated >10% as indicating re-coupling activity. This assay method can also be used to construct a dose-response curve as shown. We investigated compounds in 4 categories.
Figure 2 Single [Ca^2+] screen for re-coupling compounds. […] Solid lines, phosphorylated state; dotted lines, unphosphorylated state. Purple lines and points, E180G thin filaments; green lines and points, E180G thin filaments + Quercetin (B) Dose -response curve for quercetin recoupling activity measured at a constant concentration of 0.037 μM Ca^2+. INSET, kinetic analysis of dose response curve; difference between phosphorylated and unphosphorylated states is plotted against quercetin concentration. The Hill equation is fitted to the data, EC50 = 8 μM. (C,D) The effect of 100 μM drug treatment on the difference between % of motility of phosphorylated and unphosphorylated tropomyosin E180G mutant-containing thin filaments at 0.037 μM Ca^2+. (C) EGCG-related molecules (for structures 1–28 see Figure S1 and Table 1). (D) Silybin, related compounds and other HsP90 inhibitors and Ca^2+ desensitizers. The threshold for positive re-coupling was set at a 10% difference (dotted line).

[3] = tested on: isolated cardiomyocytes from ACTC E99K HCM transgenic mice; assay: Lusitropic effect of dobutamine in isolated cardiomyocytes; assay type: cell-based; details: blunted in ACTC E99K mouse cardiomyocytes; preliminary experiments
Excerpt: The main effect of uncoupling of the modulation of Ca^2+ sensitivity by TnI phosphorylation is the loss of the lusitropic response to beta adrenergic stimulation, which is usually accompanied by blunting of the whole physiological adrenergic response.

[4] = molecular target: T3, thin filaments containing TnC G159D (TNNC1 G159D, DCM) (Homo sapiens, UniProt P19429+P45379+P63316, G159D); assay: IVMA Ca2+-activation curves, TNNC1 G159D; assay type: biochemical; details: phosphorylated and unphosphorylated TnC G159D thin filaments
T3 construct: TnC G159D mutant troponin was extracted from a mutant human heart sample; from tissue; host or cells: mutant human heart sample (troponin); rabbit skeletal muscle (actin)
Excerpt: as §1
Thin filaments were reconstituted with 10 nM rabbit skeletal or mouse cardiac muscle α-actin (labeled with TRITC phalloidin), tropomyosin (40–60 nM), and troponin (60 nM) to study Ca^2+-regulation of filament motility by the quantitative in vitro motility assay (IVMA) (Fraser and Marston, [1995]; Messer et al., [2007]). […] Filament movement was recorded and analyzed as previously described (Marston et al., [1996]), yielding two parameters, the fraction of filaments moving and the speed of moving filaments. […]
The fraction motile was measured over a range of Ca^2+ concentrations to generate Ca^2+-activation curves. […]

Hsp90 = tested on: Hsp90; design: method as in Khandelwal et al., 2013; details: ref Khandelwal et al., 2013; read-out: EC50 Hsp90 inhibition assay; cited from earlier work
[5] = dose-response of % motility difference at 0.037 μM Ca2+, Hill fit

Row | Structure (SMILES) | Coupling Difference (Initial Screen E180G) [2] | re-coupling activity (in words) [2] | also measured
1 | Oc1cc(O)c2c(c1)O[C@H](c1cc(O)c(O)c(O)c1)[C@H](O)C2 [Epigallocatechin] | 62% |  | 
2 | Oc1cc(O)c2c(c1)O[C@H](c1cc(O)c(O)c(O)c1)[C@@H](O)C2 [Gallocatechin] | 68% |  | 
3 | COC(=O)N1CCN(Cc2cccc(NC(=O)Nc3ccc(C)nc3)c2F)CC1 [Omecamtiv Mecarbil] | 0% | do not re-couple | 
4 | COc1cc(/C=C/c2ccc(O)cc2)cc(OC)c1 [Pterostilbene] | 50% | effective re-couplers | 
5 | O=c1c(O)c(-c2ccc(O)c(O)c2)oc2cc(O)cc(O)c12 [Quercetin] | 51% |  | effect on Ca2+-activation curves (desensitizer / re-coupler), in words [1]: typical pure recoupler; also recorded: pure recoupling; EC50 [2, 5]: 8 µM
6 | Oc1ccc(/C=C/c2cc(O)cc(O)c2)cc1 [Resveratrol] | 63% | effective re-couplers | lusitropic effect of dobutamine, in words [3]: restored
7 | NCCCCCCNS(=O)(=O)c1cccc2c(Cl)cccc12 [W-7] | 50% | effective re-couplers | 
8 | COc1cccc(C(=O)OC2COc3cccc(O)c3C2)c1 (stereo not drawn) [compound 4] | 27.0% |  | EC50 (Hsp90): > 100 µM; EC50 [2, 5]: 34 µM
9 | COc1ccc(C(=O)OC2COc3cc(OC)cc(OC)c3C2)cc1 (stereo not drawn) [compound 7] | −11.0% | reverse effect | EC50 (Hsp90): 32 µM; EC50 [2, 5]: 67 µM
10 | COc1cc(OC)c2c(c1)OCC(OC(=O)c1ccc(OC(C)=O)c(CC=C(C)C)c1)C2 (stereo not drawn) [compound 8] | No Effect | inactive | EC50 (Hsp90): 38 µM
11 | COc1ccc(C(=O)OC2COc3cccc(O)c3C2)cc1 (stereo not drawn) [compound 9] | 20.0% |  | EC50 (Hsp90): > 100 µM; EC50 [2, 5]: 35 µM
12 | CCOc1cccc(C(=O)OC2COc3cc(OC)cc(OC)c3C2)c1 (stereo not drawn) [compound 16] | 6.0% | inactive | EC50 (Hsp90): 8 µM; EC50 [2, 5]: 31 µM
13 | COc1cc(OC)cc(C(=O)OC2COc3cc(OC)cc(OC)c3C2)c1 (stereo not drawn) [compound 19] | 24.0% | re-coupler | EC50 (Hsp90): 21 µM

Further lines, with some results ahead:

Row | Coupling Difference (Initial Screen E180G) [2] | re-coupling activity (in words) [2] | Structure (SMILES) | also measured
14 | 3% | poor recoupling molecule | COc1cc([C@H]2Oc3cc(-c4oc5cc(O)cc(O)c5c(=O)c4O)ccc3O[C@@H]2CO)ccc1O [Dehydrosilybin A, 2,3-dehydrosilybin A] | effect on Ca2+-activation curves (desensitizer / re-coupler), in words [1]: ineﬀective
15 | 62% | restores coupling | COc1cc([C@@H]2Oc3cc(-c4oc5cc(O)cc(O)c5c(=O)c4O)ccc3O[C@H]2CO)ccc1O [Dehydrosilybin B, 2,3-dehydrosilybin B] | effect on Ca2+-activation curves (desensitizer / re-coupler), in words [1]: pure recoupling; effect on Ca2+-activation curves (desensitizer / re-coupler), in words ([1]; listed as dehydrosilybin B): recouples; EC50 [2, 5]: 47 µM
16 | 8% |  | O=C(O[C@@H]1Cc2c(O)cc(O)cc2O[C@@H]1c1ccc(O)c(O)c1)c1cc(O)c(O)c(O)c1 [Epicatechin Gallate] | effect on Ca2+-activation curves (desensitizer / re-coupler), in words ([1]; listed as ECG): pure desensitizer; also recorded: desensitizer but not a recoupler
17 | 69% |  | Oc1cc(O)c2c(c1)O[C@H](c1ccc(O)c(O)c1)[C@H](O)C2 [Epicatechin] | 
18 | 4% |  | COc1cc(C2Oc3ccc([C@H]4Oc5cc(O)cc(O)c5C(=O)[C@@H]4O)cc3OC2CO)ccc1O (stereo partly drawn) [Isosilybin] | 
19 | 46% |  | CO[C@@H]1[C@@H](OC(N)=O)[C@@H](O)[C@H](Oc2ccc3c(O)c(NC(=O)c4ccc(O)c(CC=C(C)C)c4)c(=O)oc3c2C)OC1(C)C [Novobiocin] | 
20 | 5% | complex dose sensitive | COc1cc([C@H]2Oc3cc([C@H]4Oc5cc(O)cc(O)c5C(=O)[C@@H]4O)ccc3O[C@@H]2CO)ccc1O [Silybin A] | effect on Ca2+-activation curves (desensitizer / re-coupler), in words [4]: pure desensitizer
21 | 12.0% |  | COc1cc(C2Oc3cc([C@H]4Oc5cc(O)cc(O)c5C(=O)[C@@H]4O)ccc3OC2CO)ccc1O (stereo partly drawn) [Silybin] | EC50 [2, 5]: 47 µM
22 | 35% |  | COc1cc([C@@H]2Oc3c(O)cc([C@H]4Oc5cc(O)cc(O)c5C(=O)[C@@H]4O)cc3[C@H]2CO)ccc1O [Silychristin] | 
23 | 20% |  | COc1cc([C@@H]2[C@H]3CO[C@@]4(O)C(=O)[C@@H]2C=C([C@H]2Oc5cc(O)cc(O)c5C(=O)[C@@H]2O)[C@@H]34)ccc1O [Silydianin] | 
24 | 30% |  | COc1ccc(-c2coc3cc(O[C@@H]4O[C@H](CO)[C@@H](O)[C@H](O)[C@H]4O)cc(O)c3c2=O)cc1 [Sissotrin] | 
25 | 60% |  | O=C1c2c(O)cc(O)cc2OC(c2ccc(O)c(O)c2)C1O (stereo not drawn) [Taxifolin] | 
26 | 27.0% | effective re-couplers | COc1cccc(-c2cc(C(=O)OC3COc4cc(O)cc(O)c4C3)ccc2OC)c1 (stereo not drawn) [compound 2] | EC50 (Hsp90): 22 µM; EC50 [2, 5]: 30 µM
27 | −1.0% |  | O=C(O[C@H]1COc2cc(O)cc(O)c2C1)c1cccc(O)c1 [compound 12] | EC50 (Hsp90): 63 µM; nH (Table 6-1, E180G + Drug) ([2]; Hill coefficient of dose-response of % motility difference, 0.037 µM Ca2+): No%Eﬀect; EC50 (Table 6-1, E180G + Drug) ([2]; difference between phosphorylated and dephosphorylated TPM1 E180G thin filaments, 0.037 µM Ca2+, Hill fit): No%Eﬀect; E180G EC50 % Motility Difference [2, 5]: No Effect; Magnitute (% difference) ([2]; fitted magnitude of dose-response of % motility difference, 0.037 µM Ca2+): No%Eﬀect
